Values quoted from earlier work in publication PMC9762682, “Tocotrienols: Exciting Biological and Pharmacological Properties of Tocotrienols and Naturally Occurring Compounds, Part II” (Annals of clinical case reports, 2022).
Read-outs that look alike come from different tables or passages of the source. Marks after values point to notes of the source that are not given here.

Assays:
[1] = system: hypercholesterolemic subjects
[2] = system: plasma TNF-α, IL-2, IL-4, IL-6, IL-8, IL-10; parameters: method as in earlier work; details: 250 mg/d + AHA Step-1 diet; baseline = 100
[3] = system: gene expression of TNF-α, IL-2, IL-4, IL-6, IL-8, IL-10; parameters: method as in earlier work; details: 250 mg/d + AHA Step-1 diet; baseline = 100
plasma miRNAs = system: plasma miRNAs; parameters: method as in earlier work
[4] = system: cytokines, adiponectin, TGF-β1, leptin; parameters: method as in ref 14 = [14]; PMID 27493840; doi:10.4172/2155-9880.1000434; 14. Qureshi AA , Khan DA , Saleem S , Silswal N , Trias AM , Tan B , Pharmacokinetics and bioavailability of Annatto δ-tocotrienol in healthy fed subjects . J Clin Exp Cardiol . 2015; 6 : 11 . 10.417; details: δ-tocotrienol treatment, pharmacokinetic study
[5] = parameters: method as in ref 16 = [16]; PMID 27493840; doi:10.4172/2155-9880.1000434; 16. Qureshi AA , Khan DA , Silswal N , Saleem S , Qureshi N . Evaluation of pharmacokinetics and bioavailability of higher doses of δ-tocotrienol in healthy fed humans . J Clin Exp Cardiol . 2016; 7
[6] = system: 20S rabbit muscle proteasome
TNF-α [7] = details: LPS-induced macrophages of wild type (C57BL/6) control group
TNF-α [8] = details: LPS-induced macrophages of PPAR-α knockout female mice
Hela cells = system: Hela cells; parameters: method as in PMID 29606130; value at effective dose: unit not given here;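 as to IC50: anti-proliferation of cancer cells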
Prostate cancer cells = system: Prostate cancer cells; parameters: method as in PMID 29606130; value at effective dose: scale not given here;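 as to IC50: anti-proliferation of cancer cells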
Breast cancer cells = system: Breast cancer cells; parameters: method as in PMID 29606130; value at effective dose: unit not given here;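 as to IC50: anti-proliferation of cancer cells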
Lung cancer cells = system: Lung cancer cells; parameters: method as in PMID 29606130; value at effective dose: unit not given here
Melanoma cells = system: Melanoma cells; parameters: method as in PMID 29606130
B-Lymphocyte cells = system: B-Lymphocyte cells; parameters: method as in PMID 29606130; value at effective dose: unit not given here;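 as to IC50: anti-proliferation of cancer cells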
T-cells (Jurkat) = system: T-cells (Jurkat); parameters: method as in PMID 29606130
[9] = 250 mg/d + AHA Step-1 diet, baseline = 100
[10] = plasma tocol after single dose 750 mg δ-tocotrienol
[11] = plasma tocol after single dose 750 mg δ-tocotrienol, listed as δ-tocotrienol
[12] = plasma tocol after single dose 1000 mg δ-tocotrienol
[13] = plasma tocol after single dose 1000 mg δ-tocotrienol, listed as δ-tocotrienol
[14] = serum, two capsules/d for 24-weeks

## CC(C)=CCC/C(C)=C/CC/C(C)=C/CC[C@]1(C)CCc2cc(O)cc(C)c2O1 [δ-Tocotrienol]
[1]; 250 mg/d + AHA Step-1 diet
  reduction of LDL-cholesterol (maximum effect): 18%
  reduction of total cholesterol (maximum effect): 15%
  reduction of triglycerides (maximum effect): 14%
[1]; 125-750 mg/d + AHA Step-1 diet
  effect on HDL-cholesterol: without affecting
[1]; above 500 mg/d dose + AHA Step-1 diet
  levels of lipid parameters: induction
[2]
  plasma IL-2: 55.5 ± 0.71
  plasma IL-4: 49.0 ± 1.41
  plasma IL-6: 38.5 ± 2.21
  plasma IL-8: 43.5 ± 0.71
  plasma IL-10: 63.5 ± 2.12
  plasma TNF-α: 48.5 ± 0.7
[3]
  Gene Expression IL-2: 91.5 ± 3.54
  Gene Expression IL-4: 77.5 ± 2.12
  Gene Expression IL-6: 73.5 ± 0.71
  Gene Expression IL-8: 92.0 ± 2.83
  Gene Expression IL-10: 89.0 ± 1.41
  Gene Expression TNF-α: 84.5 ± 0.71^a, ^**
Plasma miRNAs; [9]
  plasma miRNA-7a: 168.0 ± 1.41
  plasma miRNA-15a: 179.0 ± 1.41
  plasma miRNA-20a: 168.00 ± 2.24
  plasma miRNA-21: 143.0 ± 2.83
  plasma miRNA-29a: 142.0 ± 2.83
  plasma miRNA-92a: 153.5 ± 2.12
  plasma miRNA-200: 146.0 ± 1.41
  plasma miRNA-206: 150 ± 2.83
Plasma miRNAs; compared to baseline in hypercholesterolemic subjects
  Circulating miRNA-7a, miRNA-15a, miRNA-20a, miRNA-21, miRNA-29a, miRNA-92a, miRNA-200, miRNA-206: up-regulated
[4]
  adiponectin, TGF-β1, and leptin: up-regulation
  eight cytokines: down-regulation
[5]; 0 Hr., single dose 750 mg δ-tocotrienol
  plasma tocol level: 132 ± 12 ng/mL
[5]; 0 Hr., single dose 1000 mg δ-tocotrienol
  plasma tocol level: 360 ± 20 ng/mL
[5]; 750 mg/d
  Time of clearance (Cl-T): 0.086 h⁻¹
[5]; 1000 mg/d
  Time of clearance (Cl-T): 0.078 h⁻¹
[5]; 1 hr., single dose 750 mg δ-tocotrienol
  plasma tocol level: 310 ± 28 ng/mL
[5]; 1 hr., single dose 1000 mg δ-tocotrienol
  plasma tocol level: 993 ± 33 ng/mL
[5]; 2 hr., single dose 750 mg δ-tocotrienol
  plasma tocol level: 877 ± 24 ng/mL
[5]; 2 hr., single dose 1000 mg δ-tocotrienol
  plasma tocol level: 1593 ± 44 ng/mL
[5]; 4 hr., single dose 750 mg δ-tocotrienol
  plasma tocol level: 1444 ± 53 ng/mL
[5]; 4 hr., single dose 1000 mg δ-tocotrienol
  plasma tocol level: 884 ± 45 ng/mL
[5]; 6 hr., single dose 750 mg δ-tocotrienol
  plasma tocol level: 759 ± 30 ng/mL
[5]; 6 hr., single dose 1000 mg δ-tocotrienol
  plasma tocol level: 562 ± 47 ng/mL
[5]; 8 hr., single dose 750 mg δ-tocotrienol
  plasma tocol level: 523 ± 13 ng/mL
[5]; [10]
  Area Under the Curve-t0 - t8 (AUC0-8): 6620.87 ± 49.67^a ^* ng/ml
  Area Under the Curve-t0 - ∞ (AUC0-∞): 8687.69 ± 201.01^a ^* ng/ml
  Elimination of Half-life time (t1/2): 2.74 ± 0.13^a h
  Elimination rate constant (ke): 0.253 ± 0.167^a h-1
  Peak Plasma Concentration (Cmax): 1444.23 ± 53.07^a ng/ml
  Time of clearance (Cl-T): 0.086 ± 0.002^a I/h
  Time to achieve plasma peak (Tmax): 4.00^a h
[5]; [11]
  Area Under the Curve-t0 - t8 (AUC0-8): 6620 ng·h/mL
  Area Under the Curve-t0 - ∞ (AUC0-∞): 8690 ng·h/mL
  Elimination rate constant (ke): 0.25 h⁻¹
  Peak Plasma Concentration (Cmax): 1444 ng/mL
[5]; [12]
  Area Under the Curve-t0 - t8 (AUC0-8): 7450.10 ± 89.01^a ^* ng/ml
  Area Under the Curve-t0 - ∞ (AUC0-∞): 9633.18 ± 382.98^a ^* ng/ml
  Elimination of Half-life time (t1/2): 2.68 ± 0.29^a h
  Elimination rate constant (ke): 0.260 ± 0.143^a h-1
  Peak Plasma Concentration (Cmax): 1591.89 ± 43.97^a ng/ml
  Time of clearance (Cl-T): 0.078 ± 0.003^a I/h
  Time to achieve plasma peak (Tmax): 4.00^a h
[5]; [13]
  Area Under the Curve-t0 - t8 (AUC0-8): 7450 ng·h/mL
  Area Under the Curve-t0 - ∞ (AUC0-∞): 9630 ng·h/mL
  Peak Plasma Concentration (Cmax): 1592 ng/mL
[5]; single dose 750 mg δ-tocotrienol
  Total tocols (sum of 0-8 h): 4045 ng/mL
[6]; 40 μM
  chymotrypsin-like activity of 20S rabbit muscle proteasome: inhibition
[6]; 80 μM
  chymotrypsin-like activity of 20S rabbit muscle proteasome: activation
TNF-α [7]
  effect on secretion of TNF-α: inhibition
TNF-α [8]
  effect on secretion of TNF-α: activation
Hela cells
  IC50: 5 µM
  percentage of control at IC50 dose: 45%
Hela cells; 48 h
  effective dose: 20 µM
  percentage of control at effective dose: 18%
  value at effective dose: 8.3 ± 2.1
Prostate cancer cells
  IC50: 10 µM
  percentage of control at IC50 dose: 39%
Prostate cancer cells; 48 h
  effective dose: 20 µM
  percentage of control at effective dose: 35%
  value at effective dose: 12.3 ± 1.5
Breast cancer cells
  IC50: 10 µM
  effective dose: 20 µM
  percentage of control at IC50 dose: 49%
  percentage of control at effective dose: 56%
  value at effective dose: 10.7 ± 0.6
Lung cancer cells
  IC50: 20 µM
  effective dose: 20 µM
  percentage of control at IC50 dose: 11%
  percentage of control at effective dose: 11%
  value at effective dose: 8.3 ± 2.1
Melanoma cells
  IC50: 10 µM
  effective dose: 20 µM
  percentage of control at IC50 dose: 50%
  percentage of control at effective dose: 37%
B-Lymphocyte cells
  IC50: 10 µM
  effective dose: 20 µM
  percentage of control at IC50 dose: 55%
  percentage of control at effective dose: 21%
  value at effective dose: 2.7 ± 1.5
T-cells (Jurkat)
  IC50: 20 µM
  percentage of control at IC50 dose: 32%
People with T2DM; [14]
  Fasting Glucose, Post-dose, percentage of control (pre-dose) in parentheses: 93%
  MDA, Post-dose: 3.22 µmol/L
  MDA, Post-dose, percentage of control (pre-dose) in parentheses: 89%
  hs-CRP, Post-dose: 3.10 mg/L
  hs-CRP, Post-dose, percentage of control (pre-dose) in parentheses: 88%
People with T2DM; serum, two capsules/d for 24-weeks (δ-tocotrienol 250 mg, vitamin D3 5000 IU, resveratrol 250 mg per capsule)
  Fasting Glucose, Post-dose: 6.85 mmol/L
People with T2DM; two capsules/d for 24-weeks
  Fasting HbA1c, Post-dose: 7.79%
  Fasting HbA1c, Post-dose, percentage of control (pre-dose) in parentheses: 92%
  HOMA-IR, Post-dose: 4.51
  HOMA-IR, Post-dose, percentage of control (pre-dose) in parentheses: 86%
